Test results: paper PMC10180349 (Molecules, 2023)

Experiments:
[1] = Solubility experiment in water; conditions: for appearance of sample in water (solubility by photograph): diluted to 5 mg/mL by water
[2] = tested on: 4T1; assay: cells; conditions: Mus musculus, 4T1, 48 h
[3] = tested on: MCF-7; assay: cells; conditions: Homo sapiens, MCF7, 48 h
[4] = tested on: MDA-MB-231 cells; assay: Transmission electron microscopy of treated cells; format: cell-based, Human; conditions: MDA-MB-231, 0.1 nM, 48 h
Protocol: Ultrathin sections were isolated, stained with uranyl acetate and lead citrate for 10 min, and finally observed through the Hitachi H-7650 transmission electron microscope (Tokyo, Japan). The PTX-treated group was used as a positive control.

[5] = Acute-toxicity experiment, single dose via tail vein
[6] = cited from earlier work
[7] = tested on: MDA-MB-231 cells; assay: Annexin V-FITC/PI flow cytometry apoptosis assay; format: cell-based, Human; conditions: 48 h
Protocol: Cell apoptosis analysis was performed according to the manufacturer’s protocol of the Annexin V-FITC Detection kit (Beyotime, Shanghai, China). […] Finally, the samples were tested by flow cytometer (BD FACSCelesta) and analyzed using FlowJo Software (Tree Star Inc., Ashland, OR, USA). The PTX-treated group was used as a positive control.

[8] = tested on: MDA-MB-231; assay: cells; conditions: Homo sapiens, MDA-MB-231, 48 h
[9] = physchem; conditions: water
[10] = tested on: microtubules in MDA-MB-231 cells; assay: Immunofluorescence staining of microtubules (α-tubulin antibody); format: cell-based, Human; conditions: MDA-MB-231, 0.1 nM, 48 h
Protocol: Cells were fixed with 4% paraformaldehyde for 20 min, permeabilized with 0.1%Triton X-100 for 5 min, and blocked with 1% BSA for 1.5 h. Next, cells were incubated with α-tubulin antibody (1:400 Abcam, AB52866) at 4 °C overnight, followed by the Alexa Fluor 488 conjugated goat anti-rabbit IgG secondary antibody (1:300, ZF-0511, Zhongshan Goldenbridge Biotechnology, Beijing, China). Finally, nuclei were stained with DAPI for 4 min. Stained cells were observed using a laser confocal microscope (LSM700; Zeiss, Gottingen, Germany). The PTX-treated group was used as a positive control.

[11] = tested on: MDA-MB-231 cells; assay: Cell cycle analysis (PI, flow cytometry); format: cell-based, Human; conditions: 48 h
Protocol: Cell cycle assay was performed using the DNA Content Quantitation Assay (Solarbio, Beijing, China). […] Then, the fixed cells were incubated with RNase A solution at 37 °C for 30 min and stained with PI in the dark for 30 min at 4 °C. The red fluorescence was detected using a flow cytometer (BD FACSCalibur) at 488 nm and analyzed by FlowJo Software (Tree Star Inc, Ashland, OR, USA). The PTX-treated group was set as a positive control.

[12] = tested on: MDA-MB-231 xenograft tumor tissue; assay: TUNEL assay of tumor slides; format: in vivo, Female BALB/c nude mice; conditions: PTX-TTHA 6.87-13.73 mg/kg q3d; PTX 10 mg/kg q7d
Protocol: The tumor slides of MDA-MB-231 xenograft mice were deparaffinized and rehydrated as per the method described above. Then, the TUNEL assay was performed according to the manufacturer’s instructions. Briefly, slides were permeabilized with proteinase K for 20 min and blocked with 3% H2O2 for 10 min. After washing, slides were incubated with Biotin labeling solution for 1 h, and the nucleus was counterstained with DAPI for 1 min. The localized red fluorescence of the apoptotic cells was visualized by fluorescence microscopy. Two experienced pathologists randomly selected 10 (×200) fields for every slide and then analyzed them. The percentage of TUNEL-positive cells among total cells was semi-quantitatively measured with the Image-J software.

[13] = tested on: MCF-7; conditions: SI = IC50 MCF 10A/IC50 MCF-7, 48 h
[14] = tested on: MDA-MB-231 xenograft breast tumor model; assay: In vivo antitumor assay; conditions: medium dose 10.30 mg/kg (MPTX-TTHA), q3d, tail vein, 21 days
[15] = tested on: Ki-67; assay: Ki-67 immunohistochemical staining of tumor slides; format: in vivo, Female BALB/c nude mice; conditions: 6.87, 10.30, 13.73 mg/kg q3d, p < 0.01
Protocol: The tumor slides of MDA-MB-231 xenograft mice were deparaffinized and rehydrated as per the method described above. Next, slides were boiled in citrate antigen retrieval solution for 2 min and then blocked with 3% H2O2 for 10 min. After washing, slides were incubated with primary Ki-67 antibody (1:400, Abcam AB15580) at 4 °C overnight, followed by incubation with the goat anti-rabbit HRP-conjugated secondary antibody (1:500) for 1 h at RT. Finally, slides were stained with DAB chromogenic reagent and hematoxylin. Images were visualized using a Zeiss microscope (Carl Zeiss Meditec AG, Jena, Germany). Three separate visual fields were randomly selected from each slice. The percentage of the positive area was semi-quantitatively analyzed with the Image-J software.

[16] = Organ-body indices and signs of toxicity in the xenograft model; conditions: q3d, 3 weeks
[17] = tested on: MCF 10A; format: cell-based; conditions: Homo sapiens, 48 h
[18] = tested on: MDA-MB-231; conditions: SI = IC50 MCF 10A/IC50 MDA-MB-231, 48 h
[19] = tested on: Bcl-2; assay: Western blot of xenograft tumor tissues; format: in vivo, Female BALB/c nude mice; conditions: 6.87, 10.30, 13.73 mg/kg q3d, dose-dependent, p < 0.01
Protocol: (§1) The removed tumor tissues were cut into pieces and homogenized in RIPA lysis buffer (Cat#P0013B; Beyotime, Shanghai, China) containing PMSF protease inhibitor (Cat#ST506; Beyotime, Shanghai, China) (RIPA: PMSF = 100:1) using a glass homogenizer on ice for 30 min. The lysates were harvested by centrifugation (12,000 rpm) at 4 °C for 5 min. The protein concentrations were measured by BCA Protein Assay Kit (Beyotime, Shanghai, China) and boiled at 95 °C for 5 min. Then, equal amounts of proteins (30 μg) from five groups were separated by 10% SDS-PAGE and transferred to PVDF membranes (EMD Millipore, Billerica, MA, USA). The membranes were blocked with 5% non-fat milk for 2 h and washed with TBST buffer. Next, membranes were incubated with primary antibodies (β-actin, cleaved caspase-3, Bax, Bcl-2) at a dilution of 1:1000 at 4 °C overnight, followed by the goat anti-rabbit HRP-conjugated secondary antibody (1:5000) for 2 h at room temperature. β-actin was used as an internal control. Protein bands were visualized by a chemiluminescence detection system (Bio-Rad, Hercules, CA, USA) and quantitated using the Image-J software.

[20] = tested on: Bax; assay: Western blot of xenograft tumor tissues; format: in vivo, Female BALB/c nude mice; conditions: 6.87, 10.30, 13.73 mg/kg q3d, dose-dependent, p < 0.01
Protocol: as §1

[21] = tested on: cleaved caspase-3; assay: Western blot of xenograft tumor tissues; format: in vivo, Female BALB/c nude mice; conditions: 6.87, 10.30, 13.73 mg/kg q3d, dose-dependent, p < 0.01
Protocol: as §1

[22] = tested on: caspase-3; assay: Caspase-3 activity assay in cell lysates; format: cell-based, Human; conditions: MDA-MB-231, 0.1 and 1 nM, 48 h
Protocol: The activity of caspase-3 was performed according to the manufacturer’s protocol of the Caspase-3 Activity Assay Kit (Beyotime, Shanghai, China). […] Then, the absorbance was measured at 405 nm using a Microplate Reader (Thermo 3001, Vantaa, Finland), and the protein concentration was obtained via Bradford assay. Data were normalized for the protein content of each supernatant and expressed as the relative value compared to the control. The PTX-treated group was used as a positive control.

[23] = tested on: 4T1; conditions: SI = IC50 MCF 10A/IC50 4T1, 48 h

## CC(=O)O[C@H]1C(=O)[C@@]2(C)[C@H]([C@H](OC(=O)c3ccccc3)[C@]3(O)C[C@H](OC(=O)[C@H](O)[C@@H](NC(=O)c4ccccc4)c4ccccc4)C(C)=C1C3(C)C)[C@]1(OC(C)=O)CO[C@@H]1C[C@@H]2O [PTX, Paclitaxel, reference compound]
[1]
  appearance of sample in water (solubility by photograph): almost insoluble in water
[2]
  IC50: 9.45 ± 1.34 nM
[3]
  IC50: 9.99 ± 0.94 nM
[4]
  morphological changes of apoptosis (TEM): remarkable cellular apoptosis-related characteristics were observed
[5]; 20 mg/kg CrEL paclitaxel, Taxol (PTX), day 3, p < 0.001
  ALT, AST, Scr, WBC and NEUT values compared with controls: significantly altered
[6]
  solubility in water: 0.3 to 0.5 µg/mL
[7]; 0.1 nM, control 2.17% ± 0.76%
  cell apoptosis rate: 29.57% ± 3.31
[8]
  IC50: 8.68 ± 0.75 nM
[9]
  solubility: < 0.7 µg/mL
[10]
  microtubule fluorescence intensity compared with the control group: enhanced fluorescence intensity of microtubules
[11]; 0.1 nM, control 8.74 ± 0.60%
  cells in G2/M phase: 24.22 ± 0.70%
[12]
  TUNEL signal of apoptotic cells in tumor tissue: strong red fluorescent signal

## CC(=O)O[C@H]1C(=O)[C@@]2(C)[C@H]([C@H](OC(=O)c3ccccc3)[C@]3(O)C[C@H](OC(=O)[C@H](OC(=O)CN(CCN(CCN(CCN(CC(=O)O)CC(=O)O)CC(=O)O)CC(=O)O)CC(=O)O)[C@@H](NC(=O)c4ccccc4)c4ccccc4)C(C)=C1C3(C)C)[C@]1(OC(C)=O)CO[C@@H]1C[C@@H]2O [PTX-TTHA, 3,6,9,12-Tetraazatetradecanedioic acid, 3,6,9,12-tetrakis(carboxymethyl)-1-[2-(benzoylamino)-1-[[[6,12b-bis(acetyloxy)-12-(benzoyloxy)-2a,3,4,4a,5,6,9,10,11,12,12a,12b-dodecahydro-4,11-dihydroxy-4a,8,13,13-tetramethyl-5-oxo-7,11-methano-1H-cyclodeca [3, 4]benz [1,2-b]oxet-9-yl]oxy]carbonyl]-2-phenylethyl] ester]
[13]
  selectivity index (SI): 23.19
[14]
  tumor inhibition rate: ~70.51%
[15]
  Ki-67 expression in tumor tissues compared with the control group: significantly reduced
[1]
  appearance of sample in water (solubility by photograph): completely clear
[1]; water
  water solubility, fold higher than that of paclitaxel: about 7140 fold
[16]; 6.87, 10.30, 13.73 mg/kg, tail vein
  signs of toxicity during treatment: No noticeable signs of toxicity were observed
[16]; HPTX-TTHA, 13.73 mg/kg
  organ-body index, Heart: 5.56 ± 0.49 mg/g
  organ-body index, Kidney: 16.09 ± 0.50 mg/g
  organ-body index, Liver: 63.73 ± 5.63 mg/g
  organ-body index, Lung: 7.28 ± 0.73 mg/g
  organ-body index, Spleen: 6.20 ± 0.65 mg/g
[16]; LPTX-TTHA, 6.87 mg/kg
  organ-body index, Heart: 5.56 ± 0.63 mg/g
  organ-body index, Kidney: 16.03 ± 0.49 mg/g
  organ-body index, Liver: 63.63 ± 4.54 mg/g
  organ-body index, Lung: 7.29 ± 0.79 mg/g
  organ-body index, Spleen: 6.35 ± 0.51 mg/g
[16]; MPTX-TTHA, 10.30 mg/kg
  organ-body index, Heart: 5.49 ± 0.15 mg/g
  organ-body index, Kidney: 16.05 ± 0.47 mg/g
  organ-body index, Liver: 63.20 ± 5.17 mg/g
  organ-body index, Lung: 7.16 ± 0.61 mg/g
  organ-body index, Spleen: 6.16 ± 1.05 mg/g
[2]
  IC50: 17.2 ± 1.96 nM
[3]
  IC50: 15.8 ± 1.04 nM
[17]
  IC50: 367 ± 8.2 nM
[4]
  morphological changes of apoptosis (TEM): remarkable cellular apoptosis-related characteristics were observed
[18]
  selectivity index (SI): 28.97
[19]
  Bcl-2 expression level in tumor compared with the control group: significantly downregulated
[20]
  Bax expression level in tumor compared with the control group: significantly upregulated
[21]
  cleaved caspase-3 expression level in tumor compared with the control group: significantly upregulated
[22]
  caspase-3 activity compared with the control group: significantly activated
[5]; 138.6 mg/kg, single dose
  histopathology of main organs (H&E): No histological alterations were observed
[5]; 138.6 mg/kg, single dose, day 2, normal thereafter
  body weight change compared with controls: slight weight loss
[5]; 138.6 mg/kg, single dose, day 3 and day 14
  blood biochemical and hematological test index values compared with control: no significant differences
[5]; 138.6 mg/kg, single dose, tail vein, 14 days
  toxic signs after administration: none of these toxic signs were observed
[5]; limit dose 138.6 mg/kg, i.v.
  acute toxicity on vital organs, hematological, and biochemical parameters: no sign of acute toxicity
[23]
  selectivity index (SI): 21.36
[7]; 0.1 nM, control 2.17% ± 0.76%
  cell apoptosis rate: 30.4% ± 3.61
[7]; 1 nM
  cell apoptosis rate: 50.5% ± 2.19
[8]
  IC50: 12.7 ± 1.34 nM
[9]; thermodynamic from solid
  solubility: > 5000 µg/mL
[10]
  microtubule fluorescence intensity compared with the control group: enhanced fluorescence intensity of microtubules
[11]; 0.1 nM, control 8.74 ± 0.60%
  cells in G2/M phase: 23.06 ± 0.92%
[11]; 1 nM
  cells in G2/M phase: 51.40% ± 0.45
[12]
  TUNEL signal of apoptotic cells in tumor tissue: strong red fluorescent signal
